The subject of data set [1] is organotypic nasal polyp explants.
Data set [2] concerns the target P-gp (Homo sapiens, UniProt P08183). To be noted: literature reference 29; cited from earlier work.

Chain of P-gp (P08183 whole entry): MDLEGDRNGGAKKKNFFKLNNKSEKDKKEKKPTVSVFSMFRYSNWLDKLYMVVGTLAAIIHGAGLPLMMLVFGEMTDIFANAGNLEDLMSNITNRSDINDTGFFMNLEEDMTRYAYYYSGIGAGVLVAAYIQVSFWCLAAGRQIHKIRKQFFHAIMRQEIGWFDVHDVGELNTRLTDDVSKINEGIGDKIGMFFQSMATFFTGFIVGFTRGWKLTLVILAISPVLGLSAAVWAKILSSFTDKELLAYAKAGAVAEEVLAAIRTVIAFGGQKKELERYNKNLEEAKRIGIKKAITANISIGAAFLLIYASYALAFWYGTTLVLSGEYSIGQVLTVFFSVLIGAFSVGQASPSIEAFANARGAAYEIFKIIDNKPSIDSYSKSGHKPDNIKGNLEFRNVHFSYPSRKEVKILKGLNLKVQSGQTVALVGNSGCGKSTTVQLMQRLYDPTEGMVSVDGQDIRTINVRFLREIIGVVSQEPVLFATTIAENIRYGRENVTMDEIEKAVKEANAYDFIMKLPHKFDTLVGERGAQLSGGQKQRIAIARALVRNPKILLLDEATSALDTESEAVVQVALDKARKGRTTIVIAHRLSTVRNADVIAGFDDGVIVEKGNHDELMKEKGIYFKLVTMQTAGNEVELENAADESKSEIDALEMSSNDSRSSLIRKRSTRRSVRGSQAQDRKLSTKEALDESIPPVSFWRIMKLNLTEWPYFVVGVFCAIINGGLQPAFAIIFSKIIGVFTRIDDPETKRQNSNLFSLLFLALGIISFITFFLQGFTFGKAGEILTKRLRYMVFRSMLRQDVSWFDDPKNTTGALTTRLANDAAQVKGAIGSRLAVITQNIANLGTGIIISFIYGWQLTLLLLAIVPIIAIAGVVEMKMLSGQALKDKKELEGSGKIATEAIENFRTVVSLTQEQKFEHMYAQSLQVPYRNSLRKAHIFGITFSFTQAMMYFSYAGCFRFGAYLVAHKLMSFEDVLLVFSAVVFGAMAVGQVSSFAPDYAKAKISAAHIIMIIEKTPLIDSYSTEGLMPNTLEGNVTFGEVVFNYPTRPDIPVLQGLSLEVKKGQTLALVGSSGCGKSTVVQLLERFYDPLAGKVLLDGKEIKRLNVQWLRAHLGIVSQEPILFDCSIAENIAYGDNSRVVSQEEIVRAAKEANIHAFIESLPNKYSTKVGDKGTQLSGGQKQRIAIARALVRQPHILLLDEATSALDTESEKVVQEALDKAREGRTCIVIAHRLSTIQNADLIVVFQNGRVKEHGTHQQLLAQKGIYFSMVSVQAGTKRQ

For the compound `C[C@@H]1C[C@H]2[C@@H]3CCC4=CC(=O)C=C[C@]4(C)[C@@]3(Cl)[C@@H](O)C[C@]2(C)[C@@]1(OC(=O)c1ccco1)C(=O)CCl` [mometasone, [(8S,9R,10S,11S,13S,14S,16R,17R)-9-chloro-17-(2-chloroacetyl)-11-hydroxy-10,13,16-trimethyl-3-oxo-6,7,8,11,12,14,15,16-octahydrocyclopenta[a]phenanthren-17-yl]furan-2-carboxylate], the “tissue mometasone retention in polyps versus lower P-gp expressing turbinates” value in data set [1] was “significantly lower”. The “reduction in mometasone retention between the lowest and highest P-gp expressing polyp explants” value in data set [1] (human, not told, 60 min) is on record as about 6 fold. In addition, the P-gp substrate status result in data set [1] (not told) was “substrate of P-gp”.

In the case of `CCCC1O[C@@H]2C[C@H]3[C@@H]4CCC5=CC(=O)C=C[C@]5(C)[C@H]4[C@@H](O)C[C@]3(C)[C@]2(C(=O)CO)O1` (stereo partly shown) [budesonide], the “affinity for P-gp” value in data set [2] was “high affinity”.
